Data published in patent US9986723B2, “Screen and use of therapeutics for pancreatic ductal adenocarcinoma” (The Board of Regents of the University of Texas System, priority 2014, dated 2018).

Legend:
Format in all cases: cell-based, human
[1] = tested on: Panc1; assay: MTS cell growth assay, gemcitabine +/- warfarin; settings: warfarin 2 μM
Experimental: (§1) Cytotoxicity and augmentation of chemotherapy response was measured by MTS assays conducted in 96-well plates; cells were plated on day 0 and drug was added on day 1 in 4-fold dilutions. Maximum concentration of 2,000 nmol/L for gemcitabine was used with or without the addition of a constant concentration of 2 μM warfarin or 1.1 μM 10C9. Relative cell number was determined by adding MTS (Promega; final concentration […]), incubating for 1 to 3 hours at 37° C., and reading absorbance. Drug sensitivity curves and IC50s were calculated using in-house software.

[2] = tested on: ASPC; assay: MTS cell growth assay, gemcitabine +/- warfarin; settings: warfarin 2 μM
Experimental: as §1

[3] = tested on: Capan-EMT cells; assay: Capan-EMT cells (Capan-1 on collagen with TGFβ), ICC; settings: SFM overnight
Experimental: FIGS. 32A-C. Acquisition of Axl expression sensitizes Capan-EMT cells to warfarin. (FIG. 32A) Capan-1 cells cultured on collagen were analyzed by flow cytometry for Axl expression. The positive gate was set using a control IgG and 10C9 was used to detect Axl. […] (FIG. 32B) Capan-EMT cells were cultured in SFM overnight in the absence (control) or presence of warfarin and expression Axl, E-Cadherin, and cleaved caspase 3 was determined by ICC. Representative images are shown. (FIG. 32C) The expression Zeb1, Snail, and Twist was determined by qPCR in Capan-1 and Capan-EMT cells.
In vitro epithelial to mesenchymal transition assays. In vitro, mesenchymal transition was induced by incubating cells on chamber slides coated with collagen and adding TGF-β (20 ng/ml) to media with 5% serum for 48 hours. Media was then replaced with 1% serum and fresh TGF-β with or without warfarin (2 μM) for an additional 48 hours. Cells were the evaluated by immunocytochemistry by fixing in acetone, permeabilizing with 0.5% Brij, and incubating overnight with primary antibody: Axl, p-Axl, (R&D Systems); Vimentin (phosphoSolutions); Zeb1, E-Cadherin, and β-Catenin (Santa Cruz). The effect of Gas6 signaling on EMT was evaluated by seeding cells overnight and incubating with Gas6 (100 ng/ml) with or without warfarin for 48 hours. Cells were evaluated by ICC as described.

[4] = tested on: AKT; assay: Gas6-induced phosphorylated Akt in Panc1 cells; settings: warfarin 1 μM, Gas6 1.3 nM
Experimental: (FIG. 24A) HEK293 cells engineered to stably express recombinant Gas6 were grown in the presence of Vitamin K or Vitamin K+warfarin. Gas6 levels and γ-carboxylation were assayed by immunoblotting conditioned media. Conditioned media from untransfected HEK293 cells was used as a negative control. (FIG. 24B) Panc1 cells were grown overnight in media with 1% serum with no additions (NT), warfarin (2 μM) or BGB324 (2 μM). Lysates were probed for total Axl (tAxl) and phosphorylated Axl (pAxl). (FIG. 24C) Panc1 cells were grown in the presence of control media, Vitamin K, warfarin or warfarin+Vitamin K. The level of phosphorylated Axl (pAXL, red) was determined by immunofluorescence. (FIG. 24D) Panc1 cells were grown overnight in media with 1% serum with no additions (control), warfarin (1 μM), Gas6 (1.3 nM) or Gas6+warfarin. Lysates were probed for phosphorylated Akt (pAkt) and actin. (FIG. 24E) Lysates from Panc1 tumors harvested from mice treated with control or warfarin were probed for expression of tAxl, pAxl, actin, pAKT, tAKT, and cleaved Parp. (FIG. 24F) The effect of warfarin on cell migration was assessed by a ‘scratch’ assay. Monolayers of the indicted cells were wounded with a pipet tip. The cells were incubated in media containing 2% serum+/−warfarin (2 μM) or media containing 2% serum+Gas6 (1.3 nM)+/−warfarin.

[5] = tested on: Mia PaCa-2 cells; assay: Spheroid assay in matrigel (3D culture); settings: warfarin 200 ng/ml, 7 days
Experimental: FIGS. 25A-I. Axl inhibition reduces colony formation and enhances chemotherapy. (FIGS. 25A-C) parental Mia PaCa-2 cells or Mia PaCa-2 cells stably transfected with shRNA targeting Axl (Mia shAxl) were grown as spheroids in matrigel for 7 days in the presence or absence of warfarin (200 ng/ml), n=4/condition. Mia PaCa-2 cell colonies form large stellate colonies characteristic of invasive tumor growth. Colonies and cognate cell projections were imaged (FIG. 25A) with a Nikon Phase contrast microscope using 40× and 200× magnification. Mean total colony number (FIG. 25B) and total colony area+/−s.d. (FIG. 25C) reflective of invasive growth were calculated using Image J image analysis. […] (FIG. 25E) liver metastases were quantified after intrasplenic injection of C5LM2 cells. […] Mice were sacrificed when control treated animals were moribund and primary and metastatic burden was determined. […]
For spheroid assays, matrigel was coated on 18×18 mm glass cover-slides in a 35 mm culture dish, using Reduced Growth Factor Matrigel (BD Bioscience) as described previously (Gjerdrum et al., 2010; Lee et al., 2007). […] Quantitative analysis of 3D organotypic structures was performed using Image J analysis software. Total number of established structures and the ability of established structures to migrate into the BM (Total area) were quantified and compared.

## CC(=O)CC(c1ccccc1)c1c(O)c2ccccc2oc1=O (racemic) [Warfarin]
[1]
  Fold Reduction of gemcitabine IC50 in presence of warfarin: 211 fold
[2]
  Fold Reduction of gemcitabine IC50 in presence of warfarin: 8.4 fold
[3]
  sensitivity to warfarin (Axl, E-cadherin, cleaved caspase-3): sensitive
[4]
  Gas6-induced activation of AKT: inhibited
[5]
  tumor cell sphere formation and invasiveness in 3D culture: inhibited
